According to US20260325685A1, “Radiopharmaceutical Compositions Targeting Carbonic Anhydrase IX and Uses Thereof” (RayzeBio, Inc., priority 2023, published 2026):
Read-outs that look alike come from different tables or passages of the source.

Columns and labels:
human CA-XII = molecular target: T1, human CA-XII (Homo sapiens, UniProt O43570); assay: Surface Plasmon Resonance (SPR) binding kinetics to recombinant human CA-XII (Biacore 8K, single-cycle kinetics, 1:1 binding model)
T1 construct: purchased Creative BioMart CA12-261H
T1 sequence (O43570 25-354): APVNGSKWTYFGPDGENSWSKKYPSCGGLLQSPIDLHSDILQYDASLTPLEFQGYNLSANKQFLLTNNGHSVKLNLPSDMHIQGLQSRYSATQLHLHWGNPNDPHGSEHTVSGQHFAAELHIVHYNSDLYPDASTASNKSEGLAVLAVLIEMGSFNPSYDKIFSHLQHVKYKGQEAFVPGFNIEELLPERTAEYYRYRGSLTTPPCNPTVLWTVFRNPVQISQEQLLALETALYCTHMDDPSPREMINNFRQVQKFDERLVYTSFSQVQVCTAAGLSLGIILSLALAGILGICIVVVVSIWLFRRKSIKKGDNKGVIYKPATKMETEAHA
In short: (§1)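 Recombinant human CA-IX or CA-XII captured on streptavidin chips (1200-1800 RU) in PBS-P+, pH 7.4. Single-cycle kinetics over 9 analyte concentrations (100-0.39 nM) with 1% DMSO, 120 s association, 1200 s dissociation, 25° C. Reference- and DMSO-corrected curves fit to 1:1 model for on/off rates.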

human CA-IX = molecular target: T2, human CA-IX (Homo sapiens, UniProt Q16790); assay: Surface Plasmon Resonance (SPR) binding kinetics to recombinant human CA-IX (Biacore 8K, single-cycle kinetics, 1:1 binding model)
T2 construct: purchased Acro CA9-H82E3
In short: as §1

[1] = read-out: CAXII KD, Chelated Metal: Lu-175, 25° C., pH 7.4
[2] = read-out: CAIX KD; Chelated Metal: Lu-175; SPR, 25° C., pH 7.4
[3] = Chelated Metal: Cu (cold), 25° C., pH 7.4, read-out: CAXII KD
[4] = Chelated Metal: Cu (cold); SPR, 25° C., pH 7.4; read-out: CAIX KD

Compound	Kd (human CA-XII; [1])	Kd (human CA-IX; [2])	Kd (human CA-XII; [3])	Kd (human CA-IX; [4])	other results
CC(CCC(=O)N[C@@H](CC(=O)N[C@@H](CC(=O)N[C@@H](CCCCN1CCN(c2ccc(C(=O)Nc3nnc(S(N)(=O)=O)s3)cc2)CC1)C(=O)NCCOCCOCCNC(=O)CN1CCN(CC(=O)O)CCN(CC(=O)O)CCN(CC(=O)O)CC1)C(=O)O)C(=O)O)(c1ccc(O)cc1)c1ccc(O)cc1.[Lu+3] [Compound 121.1]					Kd (human CA-XII; Chelated Metal: Lu-175, 25° C., pH 7.4, read-out: CAXII KD): > 10 nM; Kd (human CA-IX; Chelated Metal: Lu-175; SPR, 25° C., pH 7.4; read-out: CAIX KD): 1 to 2.5 nM
CC(CCC(=O)N[C@@H](CC(=O)N[C@@H](CC(=O)N[C@@H](CCCCN1CCN(c2ccc(C(=O)Nc3nnc(S(N)(=O)=O)s3)cc2)CC1)C(=O)NCCOCCOCCNC(=O)CN1CCN(CC(=O)O)CCN(CC(=O)O)CCN(CC(=O)O)CC1)C(=O)O)C(=O)O)(c1ccc(O)cc1)c1ccc(O)cc1.[Lu+3] [Compound 121]	> 10 nM	< 1 nM			
CC(CCC(=O)N[C@@H](CC(=O)N[C@@H](CC(=O)N[C@@H](CCCCn1nnc(C(=O)O)c1C12CCC(C(=O)Nc3nnc(S(N)(=O)=O)s3)(CC1)CC2)C(=O)NCCOCCOCCNC(=O)CN1CCN(CC(=O)O)CCN(CC(=O)O)CCN(CC(=O)O)CC1)C(=O)O)C(=O)O)(c1ccc(O)cc1)c1ccc(O)cc1.[Lu+3] [Compound 122]	1 to 2.5 nM	1 to 2.5 nM			
CC(CCC(=O)N[C@@H](CC(=O)N[C@@H](CC(=O)N1CCN(C(=O)NCCOCCNC(=O)CN2CCN(CC(=O)O)CCN(CC(=O)O)CCN(CC(=O)O)CC2)C[C@@H]1CCCCn1cc(CCCC(=O)Nc2nnc(S(N)(=O)=O)s2)nn1)C(=O)O)C(=O)O)(c1ccc(O)cc1)c1ccc(O)cc1.[Lu+3] [Compound 123]	2.5 to 10 nM	1 to 2.5 nM			
CC(CCC(=O)N[C@@H](CC(=O)N[C@@H](CC(=O)N1CCN(C(=O)OCCOCCNC(=O)CN2CCN(CC(=O)O)CCN(CC(=O)O)CCN(CC(=O)O)CC2)C[C@@H]1CCCCn1cc(CCCC(=O)Nc2nnc(S(N)(=O)=O)s2)nn1)C(=O)O)C(=O)O)(c1ccc(O)cc1)c1ccc(O)cc1.[Lu+3] [Compound 124]	2.5 to 10 nM	2.5 to 10 nM			
CC(CCCC(=O)N1CCC(C(N)=O)(C(=O)NCC(=O)N2CCN(C(=O)CN3CCN(CC(=O)O)CCN(CC(=O)O)CC3)C[C@@H]2C(=O)NCCn2cc(C34CC(C(=O)Nc5nnc(S(N)(=O)=O)s5)(C3)C4)nn2)CC1)(c1ccc(O)cc1)c1ccc(O)cc1.[Cu+2] [Compound 126.1]			> 10 nM	< 1 nM	
NS(=O)(=O)c1nnc(NC(=O)C23CC(c4cn(CCNC(=O)[C@@H]5CN(C(=O)CN6CCN(CC(=O)O)CCN(CC(=O)O)CC6)CCN5C(=O)C[C@H](NC(=O)C[C@H](NC(=O)c5ccc(C6CC6)cn5)C(=O)O)C(=O)O)nn4)(C2)C3)s1.[Cu+2] [Compound 126.2]			2.5 to 10 nM	< 1 nM	
CC(CCCC(=O)N1CCOC[C@H]1C(=O)N[C@@H](CC(=O)N1CCN(C(=O)CN2CCN(CC(=O)O)CCN(CC(=O)O)CC2)C[C@@H]1C(=O)NCCn1cc(C23CC(C(=O)Nc4nnc(S(N)(=O)=O)s4)(C2)C3)nn1)C(=O)O)(c1ccc(O)cc1)c1ccc(O)cc1.[Cu+2] [Compound 126.3]			> 10 nM	< 1 nM	
CC(CCC(=O)N[C@@H](CC(=O)N[C@@H](CC(=O)N1CCN(C(=O)CN2CCN(CC(=O)O)CCN(CC(=O)O)CC2)C[C@H]1C(=O)NCCn1cc(C23CC(C(=O)Nc4nnc(S(N)(=O)=O)s4)(C2)C3)nn1)C(=O)O)C(=O)O)(c1ccc(O)cc1)c1ccc(O)cc1.[Cu+2] [Compound 126.4]			> 10 nM	< 1 nM	
NS(=O)(=O)c1nnc(NC(=O)C23CC(c4cn(CCNC(=O)[C@@H]5CN(C(=O)CN6CCN(CC(=O)O)CCN(CC(=O)O)CC6)CCN5C(=O)C[C@H](NC(=O)C[C@H](NC(=O)CC5CC6(CCC6)C5)C(=O)O)C(=O)O)nn4)(C2)C3)s1.[Cu+2] [Compound 126.5]			1 to 2.5 nM	< 1 nM	
CC(CCCC(=O)N1CCC(C(N)=O)(C(=O)NCC(=O)N2CCN(C(=O)CN3CCN(CC(=O)O)CCN(CC(=O)O)CC3)C[C@H]2C(=O)NCCn2cc(C34CC(C(=O)Nc5nnc(S(N)(=O)=O)s5)(C3)C4)nn2)CC1)(c1ccc(O)cc1)c1ccc(O)cc1.[Cu+2] [Compound 126]			> 10 nM	< 1 nM	
